These results are taken from US20240360361A1, “PIPERAZINE BIS-UREA AND BIS-THIOUREA-BASED CORROSION INHIBITOR COMPOUNDS FOR STEEL PROTECTION” (QATAR UNIVERSITY, priority 2023, published 2024).

“And” between values parts separate entries of the source, which are not always exact repeats. Equal entries are not always repeated.

Assay [1] in a line: Tafel extrapolation (potentiodynamic polarization) of carbon steel in 1M HCl. The text has this: (§1) Corrosion inhibition efficiency (IE % or r %) is a measure of the efficiency of an inhibitor to effectively decrease a corrosion rate. Corrosion inhibition efficiency may be measured with the Tafel extrapolation of potentiodynamic polarization (PDP).
(§2) To investigate the effect of Inhibitor 1 on corrosion mechanisms, electrochemical measurements were obtained using Tafel and A.C. impedance experiments. FIGS. 1 and 2 show Tafel and AC impedance curves of carbon steel after adding 50 to 200 ppm of Inhibitor 1 to 1M HCl solution.
(§3) The Tafel extrapolation method was used to fit the curves and obtain corrosion parameters. […] The lowest reported current density at 200 ppm concentration was 4.5 μA·cm^−2, […] than 155 μA·cm^−2 recorded for blank 1M HCl. […] The charge transfer resistance reached the maximum of 1430 Ω·cm^2 at 200 ppm and Inhibitor 1 yielded around 93% efficiency after enhancing it from 116 Ω·cm^2 for the blank solution. Inhibitor 1 is a highly efficient corrosion inhibitor even at low concentrations; at concentrations of 50 ppm and 75 ppm, it yielded an 82% and 90% efficiency, respectively.

The nature of assay [2]: AC impedance of carbon steel in 1M HCl. The settings on record: 200 ppm inhibitor.
Description: as §2, §3

The nature of assay [3]: Tafel extrapolation of C-steel in 5M HCl, three-electrode cell. As for the experimental part: as §1
(§4) Electrochemical experiments were carried out using the three-electrode cell assembly (FIG. 4). Tafel and AC impedance measurements were obtained to elucidate the corrosion mechanisms and understand the interactions at the solution-surface interface. The effect of adding 10 to 200 ppm Inhibitor 2 on the C-steel corrosion in 5M HCl solution was determined by AC impedance and Tafel curves (FIG. 5 and FIG. 6).
(§5) Furthermore, electrochemical parameters describing the kinetics of the corrosion process were acquired following the Tafel extrapolation method to fit the curves of FIG. 6. […] Inhibitor 2 successfully achieved 95% efficiency in the highly corrosive condition of 5M HCl at a tolerable quantity of only 200 ppm concentration.

A short description of assay [4]: AC impedance of C-steel in 5M HCl, three-electrode cell. Further details: unit not given here. The note with it: 200 ppm inhibitor. The protocol: as §4, §5

For `O=C(NCCCN1CCN(CCCNC(=O)Nc2ccc([N+](=O)[O-])cc2)CC1)Nc1ccc([N+](=O)[O-])cc1` [Inhibitor 1], the “% Inhibition Efficiency” value in assay [1] (50 ppm inhibitor) is 82%; in assay [1] (75 ppm inhibitor), 90%; in assay [1] (100 ppm inhibitor), 92%; in assay [1] (200 ppm inhibitor), 97%. In addition, the Corrosion rate in assay [1] (50 ppm inhibitor) was 13 mils · year^−1; in assay [1] (75 ppm inhibitor) it was 6.8 mils · year^−1; in assay [1] (100 ppm inhibitor) it was 5.5 mils · year^−1; in assay [1] (200 ppm inhibitor), 2 mils · year^−1 and 2.0 mils · year^−1; in assay [3] (10 ppm inhibitor), 360 mils · year^−1; in assay [3] (50 ppm inhibitor), 196 mils · year^−1. Moreover, the Corrosion rate was 96 mils · year^−1 in assay [3] (100 ppm inhibitor) and 46 mils · year^−1 in assay [3] (200 ppm inhibitor). Further, the Current density is listed as 29 μA · cm^−2 in assay [1] (50 ppm inhibitor); 15 μA · cm^−2 in assay [1] (75 ppm inhibitor); 12 μA · cm^−2 in assay [1] (100 ppm inhibitor); 4.5 μA · cm^−2 in assay [1] (200 ppm inhibitor); 787 μA · cm^−2 in assay [3] (10 ppm inhibitor); 429 μA · cm^−2 in assay [3] (50 ppm inhibitor). In addition, the results for the Current density in assay [3] (100 ppm inhibitor) and in assay [3] (200 ppm inhibitor) were 209 μA · cm^−2 and 100 μA · cm^−2, respectively. Further, the Charge transfer resistance in assay [2] is recorded as 1430 Ω·cm^2. The “Efficiency from charge transfer resistance (AC impedance)” value in assay [2] is “around 93%”. Besides, the “Inhibition Efficiency %” value in assay [3] (10 ppm inhibitor) is 57%; in assay [3] (50 ppm inhibitor) it was 77%; in assay [3] (100 ppm inhibitor) it was 89%; in assay [3] (200 ppm inhibitor), 95%. Besides, in assay [3] (200 ppm inhibitor), the “Reduction of current density versus 5M HCl blank” value was “about 18.5 fold”.
Consider `O=[N+]([O-])c1ccc(NC(=S)NCCCN2CCN(CCCNC(=S)Nc3ccc([N+](=O)[O-])cc3)CC2)cc1` [Inhibitor 2], for which, in assay [3] (200 ppm inhibitor), the Corrosion rate is recorded as 46 mils · year^−1 and the “Inhibition Efficiency %” value is given as 95%. Also, the “Charge transfer resistance (RCT)” value in assay [4] is on record as 83.4.
